Values quoted from earlier work as cited in patent US20100247645A1 (priority 2007, published 2010).

Conditions: class 3 = high solubility, low permeability

BCS (biopharmaceutical classification system) class: class 3
Structure (SMILES): COCCCOc1cc(C[C@@H](C[C@H](N)[C@@H](O)C[C@H](C(=O)NCC(C)(C)C(N)=O)C(C)C)C(C)C)ccc1OC [Aliskiren, 2(S),4(S),5(S),7(S)—N-(3-amino-2,2-dimethyl-3-oxopropyl)-2,7-di(1-methylethyl)-4-hydroxy-5-amino-8-[4-methoxy-3-(3-methoxy-propoxy)phenyl]-octanamide]
